The values below come from US6468560B2, “Controlled release dosage form of [R-(Z)]-α-(methoxyimino)-α-(1-azabicyclo[2.2.2]oct-3yl) acetonitrile monohydrochloride” (SmithKline Beecham p.l.c., priority 1996, dated 2002).

This experiment relates to human patients. Briefly: Administration to human patients, efficacy as a cognition enhancer. Type of experiment: in vivo. The protocol:
Compound X has active doses around 5-125 microgramme (μg) (calculated as free base). It has been found through administration to human patients that efficacy as a cognition enhancer may be obtained at daily doses below 0.01 mg/kg more particularly 0.003 mg/kg and below, for example 0.0001-0.003 mg/kg, such as 0.00035-0.003 mg/kg. 0.0007-0.003 mg/kg, 0.0001-0.0007 mg/kg or 0.00035-0.002 mg/kg.

For the compound `CO/N=C(\C#N)[C@H]1CN2CCC1CC2.Cl` [Compound X, [R-(Z)]-α-(methoxyimino)-α-(1-azabicyclo [2.2.2]oct-3-yl)acetonitrile monohydrochloride], the active doses (calculated as free base) was 5 to 125 µg. Moreover, the “daily doses at which efficacy as a cognition enhancer may be obtained” value (human patients, daily dose) was “below 0.01 mg/kg”.
